The test system of test [1] is CoA transferase (propionyl-CoA transferase or pct) from Megasphaera elsdenii. The test is described as follows: CoA transferase activity assay (DTNB/citrate synthase coupled, OD 412 nm) with cell free extract. In kind it is biochemical. Particulars: 25 μM CoA-ester substrate, 200 mM sodium acetate, pH 7.0; cell free extract of E. coli expressing the CoA transferase. The method, then:
The plasmid was transformed into Tuner (DE3) pLacI chemically competent cells (Novagen, Madison, Wis.), and expression from the construct tested. Briefly, a culture was grown overnight to saturation and diluted 1:20 the following morning in fresh LB medium with the appropriate antibiotics. The culture was grown at 37° C. with aeration to an OD600 of about 0.6. The culture was induced with IPTG at a final concentration of 100 μM. The culture was incubated for an additional two hours at 37° C. with aeration. Aliquots were taken pre-induction and 2 hours post-induction for SDS-PAGE analysis. A band of the expected molecular weight (55,653 Daltons predicted from the sequence) was observed after IPTG treatment. This band was not observed in cells containing a plasmid lacking the nucleic acid encoding the transferase.
Cell free extracts were prepared to assess enzymatic activity. Briefly, the cells were harvested by centrifugation and disrupted by sonication. The sonicated cell suspension was centrifuged to remove cell debris, and the supernatant was used in the assays.
Transferase activity was measured in the following assay. The assay mixture used contained 100 mM potassium phosphate buffer (pH 7.0), 200 mM sodium acetate, 1 mM dithiobisnitrobenzoate (DTNB), 500 μM oxaloacetate, 25 μM CoA-ester substrate, and 3 μg/mL citrate synthase. If present, the CoA transferase transfers the CoA from the CoA ester to acetate to form acetyl-CoA. The added citrate synthase condenses oxaloacetate and acetyl-CoA to form citrate and free CoASH. The free CoASH complexes with DTNB, and the formation of this complex can be measured by a change in the optical density at 412 nm. The activity of the CoA transferase was measured using the following substrates: lactyl-CoA, propionyl-CoA, acrylyl-CoA, and 3-hydroxypropionyl-CoA. The units/mg of protein was calculated using the following formula: (ΔE/min*Vf*dilution factor)/(VS*14.2)=units/mL where ΔE/min is the change in absorbance per minute at 412 nm, Vf is the final volume of the reaction, and VS is the volume of sample added. The total protein concentration of the cell free extract was about 1 mg/mL so the units/mL equals units/mg.

A short description of test [2]: OS17 polypeptide activity, disappearance of NAD(P)H at 340 nm. Particulars: 3-HP 1 mM as substrate; protein extract of BL21-DE3/pET11a-OS17. In kind it is biochemical, Chloroflexus aurantiacus. The method, then: To assay OS17 polypeptide function, a 100 mL culture of BL21-DE3/pET11a-OS17 cells was started using 1 mL of overnight grown culture as an inoculum. The culture was grown to an OD of 0.5-0.6 and was induced with 100 μM IPTG. After two and a half hours of induction, the cells were harvested by spinning at 8000 rpm in the floor centrifuge. The cells were washed with 10 mM Tris-HCl (pH 7.8) and passed twice through a French Press at a gauge pressure of 1000 psi. The cell debris was removed by centrifugation at 15,000 rpm. The activity of the OS17 polypeptide was measured spectrophotometrically, and the products formed during this enzymatic transformation were detected by LC/MS. The assay mix was as follows (J. Bacteriol., 181:1088-1098 (1999)):
The initial rate of reaction was measured by monitoring the disappearance of NAD(P)H at 340 nm. The activity of the OS17 polypeptide was measured using 3-HP as the substrate. The units/mL of total protein was calculated using the formula set forth in Example 1. The activity of the expressed OS17 polypeptide was calculated to be 0.061 U/mL of total protein. The reaction products were purified using a Sep Pak Vac column (Waters). The column was conditioned with 1 mL methanol and washed two times with 0.5 mL 0.1% TFA. […] The reaction products were analyzed by LC/MS.

Test [3] relates to 3-hydroxypropionyl-CoA dehydratase (OS19). Briefly: 3-hydroxypropionyl-CoA dehydratase specificity control reactions, MALDI-TOF MS. In kind it is biochemical, Chloroflexus aurantiacus. Particulars: 1 mM CoA ester, 80% D2O. The method, then: Cell free extracts were prepared by growing cells as described above. The cells were harvested by centrifugation and disrupted by sonication. The sonicated cell suspension was centrifuged to remove cell debris, and the supernatant was used in the assays. The ability of the 3-hydroxypropionyl-CoA dehydratase to perform the following three reactions was measured using MALDI-TOF MS:
The assay mixture contained 50 mM Tris-HCl (pH 7.5), 1 mM CoA ester, and about 1 μg cell free extract. Reactions were allowed to proceed at room temperature and were stopped by adding 1 volume 10% trifluroacetic acid (TFA). The reaction mixtures were purified prior to MALDI-TOF MS analysis using Sep Pak Vac C18 50 mg columns (Waters, Inc.). The columns were conditioned with 1 mL methanol and then equilibrated with two washes of 1 mL 0.1% TFA. The sample was applied to the column, and the flow through was discarded. The column was washed twice with 1 mL 0.1% TFA. The sample was eluted in 200 μL 40% acetonitrile, 0.1% TFA. The acetonitrile was removed by centrifugation in vacuo. Samples were prepared for MALDI-TOF MS analysis by mixing 1:1 with 110 mM sinapinic acid in 0.1% TFA, 67% acetonitrile. The samples were allowed to air dry.
A series of control reactions were performed to confirm the specificity of the 3-hydroxypropionyl-CoA dehydratase. […]

Here are results for 5 molecules from patent US9340803B2, “3-hydroxypropionic acid and other organic compounds” (Cargill, Incorporated, priority 2000, dated 2016).

In the case of `CCC(=O)SCCNC(=O)CCNC(=O)[C@H](O)C(C)(C)COP(=O)(O)OP(=O)(O)OC[C@H]1O[C@@H](n2cnc3c(N)ncnc32)[C@H](O)[C@@H]1OP(=O)(O)O` [Propionyl-CoA], the “CoA transferase activity, Units/mg” value in test [1] worked out at 144 Units/mg.

Regarding “OS17 polypeptide: C. aurantiacus polypeptide having CoA synthase, dehydratase, and dehydrogenase activity (propionyl-CoA synthetase)”, in test [2], the “activity of the expressed OS17 polypeptide” value was 0.061 U/mL of total protein.

As to `C=CC(=O)SCCNC(=O)CCNC(=O)[C@H](O)C(C)(C)COP(=O)(O)OP(=O)(O)OC[C@H]1O[C@@H](n2cnc3c(N)ncnc32)[C@H](O)[C@@H]1OP(=O)(O)O` [Acrylyl-CoA], the “CoA transferase activity, Units/mg” value in test [1] was 118 Units/mg.

On to `CC(C)(COP(=O)(O)OP(=O)(O)OC[C@H]1O[C@@H](n2cnc3c(N)ncnc32)[C@H](O)[C@@H]1OP(=O)(O)O)[C@@H](O)C(=O)NCCC(=O)NCCSC(=O)CCO` [3-Hydroxypropionyl-CoA], for which the “CoA transferase activity, Units/mg” value in test [1] was determined as 110 Units/mg. The “activity of 3-hydroxypropionyl-CoA dehydratase enzyme on CoA ester” value in test [3] is listed as “active”.

In the case of `CC(O)C(=O)SCCNC(=O)CCNC(=O)[C@H](O)C(C)(C)COP(=O)(O)OP(=O)(O)OC[C@H]1O[C@@H](n2cnc3c(N)ncnc32)[C@H](O)[C@@H]1OP(=O)(O)O` (stereo partly shown) [Lactyl-CoA], the “CoA transferase activity, Units/mg” value in test [1] stood at 211 Units/mg. Further, the “activity of 3-hydroxypropionyl-CoA dehydratase enzyme on CoA ester” value in test [3] is “not active”.
